# In patent US20220395553A1, “CXCR4 ANTAGONIST PEPTIDES” (COHBAR, INC., priority 2019, published 2022):
# Square brackets hold non-standard residues; d marks the D form. Peptide text beside a SMILES is read from it.
# Key:
# human CXCR4 [1] = biological target: T1, human CXCR4 (Homo sapiens, UniProt P61073); test: IC50 for CXCR4/CXCL12 ligand binding, HTRF format (Example 24); set-up: host or cells: HEK293 (Tag-lite CXCR4 cells, frozen aliquots, transient expression)
# Protocol: Peptides were initially prepared as 1 mM stock in H2O. […] Following the manufacture's protocol, a frozen aliquot of Tag-lite CXCR4 cells was thawed and immediately seeded onto 384-well plates in TLB. […] The plates were covered in aluminum foil and left at room temperature for 3 hours. Following the 3 hour incubation period, the plates were removed from the incubator and fluorescence measured using a Cytation 1 plate reader using a HTRF filter cube ([…]; BioTek; Winooski, Vt.).
# human CXCR4 [2] = biological target: T1, human CXCR4; test: IC50 for inhibition of CXCR4 activation, β-Arrestin recruitment (Example 22); type: cell-based; set-up: host or cells: C2C12 (mouse myoblast) CXCR4 β-Arrestin PathHunter cell line
# Summary of the method: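 C2C12 cells co-expressing ProLink-tagged human CXCR4 and Enzyme Acceptor-tagged β-arrestin (PathHunter). Peptides tested in 10-point, 3-fold dilutions from 1 μM (1 μM–0.05 nM). Recruitment read by chemiluminescent enzyme-fragment complementation after 90 min incubation.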
# Jurkat cells = test: CXCL12 mediated cell migration, Jurkat cells; type: cell-based, human; details: 1.1 μM test article, 100 ng/ml CXCL12, 1 hour
# Protocol: The assay was performed following a protocol similar to that described by Peng, et al., Mol Cancer Ther., 14480-90 (2015), incorporated herein by reference. Peptides were initially prepared as 1 mM stock in H2O and tested at a final concentration of 1.1 μM. […] Jurkat cells were resuspended in serum free media (RPMI+GlutaMax; Gibco/Thermo Fisher Scientific; Gaithersburg, Md.) containing 0.5% bovine serum albumin at density of 5×10^6 cells/ml. […] Cells (250,000 cells in 50 μl) supplemented with the appropriate treatments were seeded on to the upper chamber of a 96-well 5 μm HTS Transwell filter insert (Corning/Costar; Tewksbury, Mass.). […] Filter inserts were immediately placed on top of 96-well receiver trays and placed at 37° C. in a humidified atmosphere of 5% CO2/95% air for 1 hour. Following the 1 hour incubation period the filter inserts were carefully removed and the migration of cells across the filter into the bottom chamber (receiver wells) was determined by measuring ATP levels using Cell TiterGlo 2.0, according to manufacturer's instructions (Promega; Madison, Wis.); luminescence was measured using a Cytation 3 plate reader (BioTek; Winooski, Vt.).
# human CXCR4 [3] = biological target: T1, human CXCR4; test: CXCR4/CXCL12 binding, HTRF format, single concentration (Example 23); set-up: host or cells: HEK293 (Tag-lite CXCR4 cells, frozen aliquots, transient expression); details: 15 nM CXCR4R fluorescent probe, 3 hours, HEK293 Tag-lite CXCR4 cells
# Summary of the method: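 Tag-lite CXCR4 cells were exposed to peptide at 400 nM final with 15 nM (EC80) fluorescent CXCR4 probe for 3 h at room temperature. HTRF was read, and the 665/620 nm ratio ×10,000 measured probe bound to terbium-labelled receptor.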
# [4] = system: CXCR4/CXCL12 induced p-MEK; test: CXCR4/CXCL12 induced p-MEK in Jurkat cells (ELISA); type: cell-based, human; details: 5 nM CXCL12, 5 min
# Summary of the method: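 Jurkat cells in RPMI+GlutaMax containing 10% FBS and 1% penicillin/streptomycin, fresh or conditioned, were resuspended at 2×10^6 cells/ml and […] aliquots placed in tubes. After a 5 min stimulation they were pelleted, rinsed with HBSS and lysed with PMSF and protease/phosphatase inhibitors. Phospho-MEK1 (Ser217/221) was quantified by sandwich ELISA with absorbance read at 450 nm.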
# T1 sequence (P61073 whole entry): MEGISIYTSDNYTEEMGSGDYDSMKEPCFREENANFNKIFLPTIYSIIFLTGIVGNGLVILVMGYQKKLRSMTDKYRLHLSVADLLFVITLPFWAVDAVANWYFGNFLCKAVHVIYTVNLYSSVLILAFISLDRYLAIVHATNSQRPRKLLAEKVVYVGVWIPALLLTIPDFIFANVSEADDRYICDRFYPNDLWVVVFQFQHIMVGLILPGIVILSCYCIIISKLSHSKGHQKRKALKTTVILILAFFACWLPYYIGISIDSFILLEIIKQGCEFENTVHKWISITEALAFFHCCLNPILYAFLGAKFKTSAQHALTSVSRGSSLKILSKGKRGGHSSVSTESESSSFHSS
Structure (SMILES),IC50 (human CXCR4 [1]),IC50 (human CXCR4 [2]),Percent Inhibition of CXCR4/CXCL12 Binding (400 nM peptide) (human CXCR4 [3]),Percent Inhibition of CXCL12 Mediated Migration (1.1 μM Test Article) (Jurkat cells),Percent Inhibition of CXCR4/CXCL12 Induced p-MEK (100 nM Test Article) [4],Percent Inhibition of CXCR4/CXCL12 Induced p-MEK (1 μM Test Article) [4]
CC(C)C[C@H](NC(=O)[C@H](CO)NC(=O)[C@H](CO)NC(=O)[C@H](CCCNC(=N)N)NC(=O)[C@@H](NC(=O)[C@@H](NC(=O)[C@H](Cc1c[nH]cn1)NC(=O)[C@H](Cc1c[nH]cn1)NC(=O)[C@H](Cc1ccc(O)cc1)NC(=O)[C@H](CCCNC(=N)N)NC(=O)[C@H](CCC(=O)O)NC(=O)[C@@H](N)CC(C)C)[C@@H](C)O)C(C)C)C(=O)N[C@@H](CCCNC(=N)N)C(=O)N1CCC[C@H]1C(=O)N[C@@H](Cc1ccc(O)cc1)C(=O)N[C@H](C(=O)N[C@@H](CCCCN)C(=O)O)[C@@H](C)O [compound 39] (H-LERYHHTVRSSLRPYTK-OH; N-terminus and C-terminus assumed),8 nM,3 nM,87%,77%,38%,95%
CC(C)C[C@H](NC(=O)[C@H](CO)NC(=O)[C@H](CO)NC(=O)[C@H](CCCNC(=N)N)NC(=O)[C@@H](NC(=O)[C@H](CO)NC(=O)[C@H](Cc1c[nH]cn1)NC(=O)[C@H](Cc1c[nH]cn1)NC(=O)[C@H](Cc1ccccc1)NC(=O)[C@H](CCCNC(=N)N)NC(=O)[C@H](CCC(=O)O)NC(=O)[C@@H](N)CC(C)C)C(C)C)C(=O)N[C@@H](CCCNC(=N)N)C(=O)N1CCC[C@H]1C(=O)N[C@@H](Cc1ccc(O)cc1)C(=O)N[C@H](C(=O)N[C@@H](CCCCN)C(=O)O)[C@@H](C)O [compound 54] (H-LERFHHSVRSSLRPYTK-OH; N-terminus and C-terminus assumed),8 nM,3 nM,79%,54%,46%,92%
CC(C)C[C@H](NC(=O)[C@H](CO)NC(=O)[C@H](CO)NC(=O)[C@H](CCCNC(=N)N)NC(=O)[C@@H](C)NC(=O)[C@H](CO)NC(=O)[C@H](Cc1c[nH]cn1)NC(=O)[C@H](Cc1c[nH]cn1)NC(=O)[C@H](Cc1ccc(O)cc1)NC(=O)[C@H](CCCNC(=N)N)NC(=O)[C@H](CCC(=O)O)NC(=O)[C@@H](N)CC(C)C)C(=O)N[C@@H](CCCNC(=N)N)C(=O)N1CCC[C@H]1C(=O)N[C@@H](Cc1ccc(O)cc1)C(=O)N[C@H](C(=O)N[C@@H](CCCCN)C(N)=O)[C@@H](C)O [compound 57] (H-LERYHHS[dA]RSSLRPYTK-NH2; N-terminus assumed),7 nM,33 nM,77%,30%,10%,72%
CC(C)C[C@H](NC(=O)[C@H](CO)NC(=O)[C@H](CO)NC(=O)[C@H](CCCNC(=N)N)NC(=O)[C@@H](NC(=O)[C@H](CO)NC(=O)[C@H](Cc1c[nH]cn1)NC(=O)[C@H](Cc1c[nH]cn1)NC(=O)[C@H](Cc1ccc(O)cc1)NC(=O)[C@H](CCCNC(=N)N)NC(=O)[C@H](CCC(=O)O)NC(=O)[C@@H](N)CC(C)C)C(C)C)C(=O)N[C@@H](CCCNC(=N)N)C(=O)N1CCC[C@H]1C(=O)N[C@@H](Cc1ccccc1)C(=O)N[C@H](C(=O)N[C@@H](CCCCN)C(=O)O)[C@@H](C)O [compound 60] (H-LERYHHSVRSSLRPFTK-OH; N-terminus and C-terminus assumed),17 nM,4 nM,60%,33%,34%,82%
CC(C)C[C@H](NC(=O)[C@H](CO)NC(=O)[C@H](CO)NC(=O)[C@H](CCCNC(=N)N)NC(=O)[C@@H](NC(=O)[C@H](CO)NC(=O)[C@H](Cc1c[nH]cn1)NC(=O)[C@H](Cc1c[nH]cn1)NC(=O)[C@H](Cc1ccc(O)cc1)NC(=O)[C@H](CCCNC(=N)N)NC(=O)[C@H](CCC(=O)O)NC(=O)[C@@H](N)CC(C)C)C(C)C)C(=O)N[C@@H](CCCNC(=N)N)C(=O)N1CCC[C@H]1C(=O)N[C@@H](Cc1ccc(O)cc1)C(=O)N[C@@H](CO)C(=O)N[C@@H](CCCCN)C(=O)O [compound 75] (H-LERYHHSVRSSLRPYSK-OH; N-terminus and C-terminus assumed),11 nM,4 nM,81%,81%,60%,100%

# The next compounds have a lower IC50 (human CXCR4 [1]) than those just listed; values first:
IC50 (human CXCR4 [1]),IC50 (human CXCR4 [2]),Percent Inhibition of CXCR4/CXCL12 Binding (400 nM peptide) (human CXCR4 [3]),Structure (SMILES),Percent Inhibition of CXCL12 Mediated Migration (1.1 μM Test Article) (Jurkat cells),Percent Inhibition of CXCR4/CXCL12 Induced p-MEK (100 nM Test Article) [4],Percent Inhibition of CXCR4/CXCL12 Induced p-MEK (1 μM Test Article) [4]
5 nM,11 nM,79%,CC(C)C[C@H](NC(=O)[C@H](CO)NC(=O)[C@H](CO)NC(=O)[C@H](CCCNC(=N)N)NC(=O)[C@@H](NC(=O)[C@H](CO)NC(=O)[C@H](Cc1c[nH]cn1)NC(=O)[C@H](Cc1c[nH]cn1)NC(=O)[C@H](Cc1ccc(O)cc1)NC(=O)[C@H](CCCNC(=N)N)NC(=O)[C@H](CCC(=O)O)NC(=O)[C@@H](N)CC(C)C)C(C)C)C(=O)N[C@@H](CCCNC(=N)N)C(=O)N1CCC[C@H]1C(=O)N[C@@H](Cc1ccc(O)cc1)C(=O)N[C@H](C(=O)N[C@@H](CCCCN)C(N)=O)[C@@H](C)O [compound 56] (H-LERYHHSVRSSLRPYTK-NH2; N-terminus assumed),83%,69%,98%
6 nM,5 nM,88%,CC(C)C[C@H](NC(=O)[C@@H](NC(=O)[C@H](CO)NC(=O)[C@H](CCCNC(=N)N)NC(=O)[C@@H](NC(=O)[C@H](CO)NC(=O)[C@H](Cc1c[nH]cn1)NC(=O)[C@H](Cc1c[nH]cn1)NC(=O)[C@H](Cc1ccc(O)cc1)NC(=O)[C@H](CCCNC(=N)N)NC(=O)[C@H](CCC(=O)O)NC(=O)[C@@H](N)CC(C)C)C(C)C)[C@@H](C)O)C(=O)N[C@@H](CCCNC(=N)N)C(=O)N1CCC[C@H]1C(=O)N[C@@H](Cc1ccc(O)cc1)C(=O)N[C@H](C(=O)N[C@@H](CCCCN)C(=O)O)[C@@H](C)O [compound 74] (H-LERYHHSVRSTLRPYTK-OH; N-terminus and C-terminus assumed),61%,48%,93%
6 nM,4 nM,88%,CC(C)C[C@H](NC(=O)[C@H](CO)NC(=O)[C@H](CO)NC(=O)[C@H](CCCNC(=N)N)NC(=O)[C@@H](NC(=O)[C@H](CO)NC(=O)[C@H](Cc1c[nH]cn1)NC(=O)[C@H](Cc1c[nH]cn1)NC(=O)[C@H](Cc1ccc(O)cc1)NC(=O)[C@H](CCCNC(=N)N)NC(=O)[C@H](CCC(=O)O)NC(=O)[C@@H](N)CC(C)C)C(C)C)C(=O)N[C@@H](CCCNC(=N)N)C(=O)NCC(=O)N[C@@H](Cc1ccc(O)cc1)C(=O)N[C@H](C(=O)N[C@@H](CCCCN)C(=O)O)[C@@H](C)O [compound 80] (H-LERYHHSVRSSLRGYTK-OH; N-terminus and C-terminus assumed),71%,52%,96%
